According to patent EP4603105A1, “PHARMACEUTICAL COMPOSITION CONTAINING CYCLIC COMPOUND HAVING SELECTIVE KRAS INHIBITORY EFFECT AGAINST HRAS AND NRAS” (CHUGAI SEIYAKU KABUSHIKI KAISHA, priority 2022, dated 2024):
*1 amine or outer side, *2 acyl side, *3 side chain or, on linkers, in order; H or OH if unused. Where a SMILES comes first, the peptide text is derived from it. Bridges are numbered along the chain shown (N, C = ends). [ ]: non-standard residue; d: D form. The star is where a group is joined. hPhe(3-Cl-4-CF3) = N[C@@H](CCc1ccc(C(F)(F)F)c(Cl)c1)C(=O)O; NPrPhe(4-CF3) = CCCN[C@@H](Cc1ccc(C(F)(F)F)cc1)C(=O)O; NEtAsp = CCN([C@@H](CC(=O)[*:3])C(=O)[*:2])[*:1]; NPrPhe(4-Me) = CCCN[C@@H](Cc1ccc(C)cc1)C(=O)O; NMeGly(cPent) = CN[C@H](C(=O)O)C1CCCC1; Hyp = O=C(O)[C@@H]1C[C@@H](O)CN1; NMeD = CN[C@@H](CC(=O)O)C(=O)O; NMeL = CN[C@@H](CC(C)C)C(=O)O; Pip = O=C(O)[C@@H]1CCCCN1; Morpholide = C1CN(*)CCO1; NMeA = CN[C@@H](C)C(=O)O; Ac5c = NC1(C(=O)O)CCCC1; Aze = O=C(O)[C@@H]1CCN1; Ac4c = NC1(C(=O)O)CCC1; NEtG = CCNCC(=O)O; Sar = CNCC(=O)O

Key:
[1] = biological target: GDP-bound NRAS wild-type protein (Homo sapiens, UniProt P01111); assay: Binding to NRAS by surface plasmon resonance (SPR), KD and KD ratio to KRAS
Summary of the method: (§1)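 SPR, 30°C: Avi-biotin RAS·GDP captured via Biotin CAPture (~100–300 RU); running buffer HBS pH 7.4, 1 mM DTT, 10 mM MgCl2, 0.01% Tween 20, 10 µM GDP, 4% DMSO. Single-cycle kinetics, 100 µL/min, 75 s injections; 1:1 model → KD.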

[2] = biological target: HRAS wild-type protein (Homo sapiens, UniProt P01112); assay: Binding to HRAS by surface plasmon resonance (SPR), KD and KD ratio to KRAS
Summary of the method: as §1

[3] = tested on: human lung cancer strain NCI-H441; type: cell-based
Summary of the method: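 Proliferation was scored by […] measured after the reagent was added to cultures kept at 37°C in 5% carbon dioxide.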

[4] = ratio of KD for GDP-bound NRAS wild-type protein to KD for KRAS
[5] = ratio of KD for HRAS wild-type protein to KD for KRAS
[6] = ratio of the KD value with respect to GDP-bound NRAS wild-type protein to the KD value with respect to KRAS
[7] = ratio of the KD value with respect to HRAS wild-type protein to the KD value with respect to KRAS

Sequence of HRAS wild-type protein (P01112 whole entry): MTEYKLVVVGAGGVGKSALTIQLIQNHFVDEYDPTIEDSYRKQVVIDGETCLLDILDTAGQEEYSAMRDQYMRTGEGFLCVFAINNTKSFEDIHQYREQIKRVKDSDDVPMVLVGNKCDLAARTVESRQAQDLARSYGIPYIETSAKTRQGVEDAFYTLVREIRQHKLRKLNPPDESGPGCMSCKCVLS
Sequence of GDP-bound NRAS wild-type protein (P01111 whole entry): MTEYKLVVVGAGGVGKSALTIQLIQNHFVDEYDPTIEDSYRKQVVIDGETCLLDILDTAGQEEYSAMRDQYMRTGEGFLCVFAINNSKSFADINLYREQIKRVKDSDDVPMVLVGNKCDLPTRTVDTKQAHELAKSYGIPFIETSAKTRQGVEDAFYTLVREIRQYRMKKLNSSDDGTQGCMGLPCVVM

## CCCN1C(=O)[C@@H]2CCN2C(=O)[C@H](C)N(C)C(=O)[C@H]([C@@H](C)CC)NC(=O)[C@H](CC(C)C)N(C)C(=O)C[C@@H](C(=O)N(C)C)NC(=O)[C@H](C2CCCC2)N(C)C(=O)C2(CCC2)NC(=O)[C@@H]2C[C@@H](OCC)CN2C(=O)[C@H](CCc2ccc(C(F)(F)F)c(Cl)c2)NC(=O)CN(C)C(=O)[C@@H]1Cc1ccc(C(F)(F)F)cc1 [PP0384] ([NMeL]I[NMeA][Aze][NPrPhe(4-CF3)][Sar][hPhe(3-Cl-4-CF3)][Hyp](Et)[Ac4c][NMeGly(cPent)]D-NMe2; lactam N-11)
[1]; [4]
  NRAS /KRAS: C (A compound having a KD ratio of 0.1 or more and less than 3 is denoted as C)
[2]; [5]
  HRAS /KRAS: B (a compound having 3 or more and less than 10 is denoted as B)
[3]
  IC50: 7 nM

## CCCN1C(=O)[C@@H]2CCN2C(=O)[C@H](C)N(C)C(=O)[C@H]([C@@H](C)CC)NC(=O)[C@H](CC(C)C)N(C)C(=O)C[C@@H](C(=O)N2CCOCC2)N(C)C(=O)[C@H](C2CCCC2)N(C)C(=O)C2(CCCC2)NC(=O)[C@@H]2C[C@@H](OCC)CN2C(=O)[C@H](CCc2ccc(C(F)(F)F)c(Cl)c2)NC(=O)CN(C)C(=O)[C@@H]1Cc1ccc(C(F)(F)F)cc1 [PP0228] ([NMeL]I[NMeA][Aze][NPrPhe(4-CF3)][Sar][hPhe(3-Cl-4-CF3)][Hyp](Et)[Ac5c][NMeGly(cPent)][NMeD]-Morpholide; lactam N-11)
[1]; [4]
  NRAS /KRAS: C (A compound having a KD ratio of 0.1 or more and less than 3 is denoted as C)
[2]; [5]
  HRAS /KRAS: B (a compound having 3 or more and less than 10 is denoted as B)
[3]
  IC50: 1.8 nM

## CCC[C@H]1C(=O)N[C@@H]([C@@H](C)CC)C(=O)N(C)CC(=O)N(C)[C@H]2C/C=C\CCN(C2=O)[C@@H](Cc2ccc(C)cc2)C(=O)N(C)CC(=O)N[C@@H](CCc2ccc(C(F)(F)F)c(OC)c2)C(=O)N2C[C@H](OCC)C[C@H]2C(=O)NC2(CC(C)(C)C2)C(=O)N(C)[C@@H]([C@@H](C)CC)C(=O)N(C)[C@H](C(=O)N(C)C)CC(=O)N1C [PP3006]
[1]; [4]
  NRAS /KRAS: A (a compound having 10 or more and less than 20 is denoted as A)
[2]; [5]
  HRAS /KRAS: A (a compound having 10 or more and less than 20 is denoted as A)
[3]
  IC50: 14.1 nM

## CCC[C@@H]1C[C@H]2C(=O)NC3(CC(C)(C)C3)C(=O)N(C)[C@@H](C3CCCC3)C(=O)N(C)[C@H](C(=O)N(C)C)CC(=O)N(C)[C@@H](C)C(=O)N[C@@H]([C@@H](C)CC)C(=O)N(C)CC(=O)N(C)[C@H]3C/C=C\CCN(C3=O)[C@@H](Cc3ccc(C(F)(F)F)cc3)C(=O)N(C)CC(=O)N[C@@H](CCc3cc(F)c(C(F)(F)F)c(F)c3)C(=O)N2C1 [PP2273]
[1]; [6]
  NRAS /KRAS: AA (a compound having 20 or more is denoted as AA)
[2]; [7]
  HRAS /KRAS: A (a compound having 10 or more and less than 20 is denoted as A)
[3]
  IC50: 16 nM

## CCCCO[C@H]1CCN2C(=O)[C@H](CCc3cc(F)c(C(F)(F)F)c(F)c3)NC(=O)CN(C)C(=O)[C@H](Cc3ccc(C(F)(F)F)cc3)N3CCCC[C@@H](C3=O)N(C)C(=O)CN(C)C(=O)[C@H]([C@@H](C)CC)NC(=O)[C@H](CC(C)C)N(C)C(=O)C[C@@H](C(=O)N3CCOCC3)N(C)C(=O)[C@H](C3CCCC3)N(C)C(=O)C3(CCC3)NC(=O)[C@H]12 [PP1071]
[1]; [4]
  NRAS /KRAS: B (a compound having 3 or more and less than 10 is denoted as B)
[2]; [5]
  HRAS /KRAS: B (a compound having 3 or more and less than 10 is denoted as B)
[3]
  IC50: 24.7 nM

## CCCOC[C@H]1C(=O)N[C@@H]([C@@H](C)CC)C(=O)N(C)CC(=O)N(C)[C@H]2C/C=C\CCN(C2=O)[C@@H](Cc2ccc(C(F)(F)F)cc2)C(=O)N(C)CC(=O)N[C@@H](CCc2ccc(C(F)(F)F)c(OC)c2)C(=O)N2C[C@H](OCC)C[C@H]2C(=O)NC2(CC(C)(C)C2)C(=O)N(C)[C@@H](C2CCCC2)C(=O)N(C)[C@H](C(=O)N(C)CC)CC(=O)N1C [PP1973]
[1]; [6]
  NRAS /KRAS: A (a compound having 10 or more and less than 20 is denoted as A)
[2]; [7]
  HRAS /KRAS: B (a compound having 3 or more and less than 10 is denoted as B)
[3]
  IC50: 8.7 nM

## CCCN1C(=O)[C@@H]2CCN2C(=O)[C@H](C)N(C)C(=O)[C@H]([C@@H](C)CC)NC(=O)[C@H](CC(C)C)N(C)C(=O)C[C@@H](C(=O)N2CCOCC2)N(C)C(=O)[C@H](C2CCCC2)N(C)C(=O)C2(CCCC2)NC(=O)[C@@H]2CCCN2C(=O)[C@H](CCc2ccc(C(F)(F)F)c(Cl)c2)NC(=O)CN(CC)C(=O)[C@@H]1Cc1ccc(C)cc1 [PP0058] ([NMeL]I[NMeA][Aze][NPrPhe(4-Me)][NEtG][hPhe(3-Cl-4-CF3)]P[Ac5c][NMeGly(cPent)][NMeD]-Morpholide; lactam N-11)
[1]; [4]
  NRAS /KRAS: C (A compound having a KD ratio of 0.1 or more and less than 3 is denoted as C)
[2]; [5]
  HRAS /KRAS: C (A compound having a KD ratio of 0.1 or more and less than 3 is denoted as C)
[3]
  IC50: 25.8 nM

## CCO[C@@H]1C[C@H]2C(=O)NC3(CCC3)C(=O)N(C)[C@@H](C3CCCC3)C(=O)N(C)[C@H](C(=O)N(C)CCOC)CC(=O)N(C)[C@@H](CC(C)C)C(=O)N[C@@H]([C@@H](C)CC)C(=O)N(C)CC(=O)N(C)[C@H]3C/C=C\CCN(C3=O)[C@@H](Cc3ccc(C(F)(F)F)cc3)C(=O)N(C)CC(=O)N[C@@H](CCc3ccc(Cl)c(Cl)c3)C(=O)N2C1 [PP1326]
[1]; ratio of KD with respect to GDP-bound NRAS wild-type protein to KD with respect to KRAS
  NRAS /KRAS: AA (a compound having 20 or more is denoted as AA)
[2]; ratio of KD with respect to HRAS wild-type protein to KD with respect to KRAS
  HRAS /KRAS: A (a compound having 10 or more and less than 20 is denoted as A)
[3]
  IC50: 23.1 nM

## CCCN1C(=O)CN(C)C(=O)CN(C)C(=O)[C@H]([C@@H](C)CC)NC(=O)[C@H](CC(C)C)N(C)C(=O)C[C@@H](C(=O)N2CCOCC2)N(C)C(=O)[C@H](C2CCCC2)N(C)C(=O)C2(CCCC2)NC(=O)[C@@H]2CCCCN2C(=O)[C@H](CCc2ccc(C(F)(F)F)c(Cl)c2)NC(=O)CN(C)C(=O)[C@@H]1Cc1ccc(C(F)(F)F)cc1 [PP0263] ([NMeL]I[Sar][Sar][NPrPhe(4-CF3)][Sar][hPhe(3-Cl-4-CF3)][Pip][Ac5c][NMeGly(cPent)][NMeD]-Morpholide; lactam N-11)
[1]; [4]
  NRAS /KRAS: B (a compound having 3 or more and less than 10 is denoted as B)
[2]; [5]
  HRAS /KRAS: C (A compound having a KD ratio of 0.1 or more and less than 3 is denoted as C)
[3]
  IC50: 19.2 nM

## CCCN1C(=O)CN(C)C(=O)CN(C)C(=O)[C@H]([C@@H](C)CC)NC(=O)[C@H](CC(C)C)N(C)C(=O)C[C@@H](C(=O)N(C)C)N(CC)C(=O)[C@H](C2CCCC2)N(C)C(=O)C2(CCC2)NC(=O)[C@@H]2CCCN2C(=O)[C@H](CCc2ccc(C(F)(F)F)c(Cl)c2)NC(=O)CN(C)C(=O)[C@@H]1Cc1ccc(C(F)(F)F)cc1 [PP1956] ([NMeL]I[Sar][Sar][NPrPhe(4-CF3)][Sar][hPhe(3-Cl-4-CF3)]P[Ac4c][NMeGly(cPent)][NEtAsp]-NMe2; lactam N-11)
[1]; [6]
  NRAS /KRAS: B (a compound having 3 or more and less than 10 is denoted as B)
[2]; [7]
  HRAS /KRAS: B (a compound having 3 or more and less than 10 is denoted as B)
[3]
  IC50: 2.2 nM

## CC[C@H](C)[C@@H]1NC(=O)[C@H](CC(C)C)N(C)C(=O)C[C@@H](C(=O)N2CCOCC2)N(C)C(=O)[C@H](C2CCCC2)N(C)C(=O)C2(CCCC2)NC(=O)[C@@H]2CCCN2C(=O)[C@H](CCc2cc(F)c(C(F)(F)F)c(F)c2)NC(=O)CN(C)C(=O)[C@H](Cc2ccc(C(F)(F)F)cc2)N2CCCCC[C@@H](C2=O)N(C)C(=O)[C@H](C)NC1=O [PP0481]
[1]; [6]
  NRAS /KRAS: B (a compound having 3 or more and less than 10 is denoted as B)
[2]; [7]
  HRAS /KRAS: B (a compound having 3 or more and less than 10 is denoted as B)
[3]
  IC50: > 1000 nM
